Test results from publication PMC4268243 (Nuclear medicine and biology, 2014).

Columns and labels:
[1] = tested on: DU145 androgen-independent prostate carcinoma cells; assay: Amino acid uptake and inhibition in DU145 cells; format: cell-based, human; conditions: DU145, 30 minutes incubation
U87 glioblastoma cells = assay: Amino acid uptake and inhibition in U87 cells; format: cell-based, human; conditions: for Cell uptake: U87, 30 minutes incubation
[2] = tested on: MDA MB468 estrogen-independent breast carcinoma cells; assay: Amino acid uptake and inhibition in MDA MB468 cells; format: cell-based, human; conditions: MDA MB468, 30 minutes incubation
[3] = tested on: SKOV3 estrogen-positive ovarian adenocarcinoma cells; assay: Amino acid uptake and inhibition in SKOV3 cells; format: cell-based, human; conditions: for Cell uptake: SKOV3, 30 minutes incubation
DU145 tumor xenograft = assay: Biodistribution in DU145 tumor-bearing SCID mice; format: in vivo; conditions: listed as (R)-[^18F] FAMP 1
SKOV3 tumor xenograft = assay: Biodistribution in SKOV3 tumor-bearing SCID mice; format: in vivo; conditions: listed as (R)-[^18F] FAMP 1
[4] = tested on: human A549, DU145, U87, MDA MB468 and SKOV3 tumor cells; assay: Amino acid uptake and inhibition, summary over the five tumor cell lines; format: cell-based

CC(N)(C[18F])C(=O)O [(R)-[^18F]1] [2-amino-3-[^18F]fluoro-2-methylpropanoic acid]
Cell uptake ([1]; 10 mM BCH): 3.3±0.2 % ID/5×10^5 cells
Cell uptake ([1]; 10 mM MeAIB): 3.6±0.2 % ID/5×10^5 cells
Cell uptake ([1]; Control (no inhibitor)): 5.1±0.1 % ID/5×10^5 cells
Cell uptake (U87 glioblastoma cells; 10 mM BCH): 4.8±0.3 % ID/5×10^5 cells
Cell uptake (U87 glioblastoma cells; 10 mM MeAIB): 2.0±0.3 % ID/5×10^5 cells
Cell uptake (U87 glioblastoma cells; Control (no inhibitor)): 6.0±0.3 % ID/5×10^5 cells
inhibition of uptake by BCH (U87 glioblastoma cells; U87 cells, 10 mM BCH, relative to control): 20%
inhibition of uptake by MeAIB (U87 glioblastoma cells; U87 cells, 10 mM MeAIB, relative to control): 67%
Cell uptake ([2]; 10 mM BCH): 3.0±0.4 % ID/5×10^5 cells
Cell uptake ([2]; 10 mM MeAIB): 4.4±0.2 % ID/5×10^5 cells
Cell uptake ([2]; Control (no inhibitor)): 5.7±0.3 % ID/5×10^5 cells
Cell uptake ([3]; 10 mM BCH): 7.6±0.2 % ID/5×10^5 cells
Cell uptake ([3]; 10 mM MeAIB): 4.6±0.1 % ID/5×10^5 cells
Cell uptake ([3]; Control (no inhibitor)): 9.2±0.2 % ID/5×10^5 cells
inhibition of uptake by BCH ([3]; SKOV3 cells, 10 mM BCH, relative to control): 17%
inhibition of uptake by MeAIB ([3]; SKOV3 cells, 10 mM MeAIB, relative to control): 50%
uptake in blood (DU145 tumor xenograft; 15 min post injection): 5.2±1.2 %ID/g
uptake in bone (DU145 tumor xenograft; 15 min post injection): 3.9±1.0 %ID/g
uptake in brain (DU145 tumor xenograft; 15 min post injection): 1.0±0.3 %ID/g
uptake in heart (DU145 tumor xenograft; 15 min post injection): 5.8±1.5 %ID/g
uptake in kidney (DU145 tumor xenograft; 15 min post injection): 26±7.5 %ID/g
uptake in liver (DU145 tumor xenograft; 15 min post injection): 7.2±3.4 %ID/g
uptake in lung (DU145 tumor xenograft; 15 min post injection): 7.6±1.8 %ID/g
uptake in muscle (DU145 tumor xenograft; 15 min post injection): 2.9±0.7 %ID/g
uptake in pancreas (DU145 tumor xenograft; 15 min post injection): 62±20 %ID/g
uptake in spleen (DU145 tumor xenograft; 15 min post injection): 17±7.6 %ID/g
uptake in tumor (DU145 tumor xenograft; 15 min post injection): 8.8±1.9 %ID/g
uptake in blood (DU145 tumor xenograft; 30 min post injection): 3.7±0.3 %ID/g
uptake in bone (DU145 tumor xenograft; 30 min post injection): 4.0±0.3 %ID/g
uptake in brain (DU145 tumor xenograft; 30 min post injection): 1.3±0.1 %ID/g
uptake in heart (DU145 tumor xenograft; 30 min post injection): 5.6±0.6 %ID/g
uptake in kidney (DU145 tumor xenograft; 30 min post injection): 16±2.2 %ID/g
uptake in liver (DU145 tumor xenograft; 30 min post injection): 6.3±0.8 %ID/g
uptake in lung (DU145 tumor xenograft; 30 min post injection): 3.1±0.4 %ID/g
uptake in muscle (DU145 tumor xenograft; 30 min post injection): 3.5±0.5 %ID/g
uptake in pancreas (DU145 tumor xenograft; 30 min post injection): 52±3.8 %ID/g
uptake in spleen (DU145 tumor xenograft; 30 min post injection): 13±1.4 %ID/g
uptake in tumor (DU145 tumor xenograft; 30 min post injection): 8.4±1.1 %ID/g
uptake in blood (DU145 tumor xenograft; 60 min post injection): 2.2±0.3 %ID/g
uptake in bone (DU145 tumor xenograft; 60 min post injection): 3.2±0.7 %ID/g
uptake in brain (DU145 tumor xenograft; 60 min post injection): 1.5±0.3 %ID/g
uptake in heart (DU145 tumor xenograft; 60 min post injection): 4.8±1.0 %ID/g
uptake in kidney (DU145 tumor xenograft; 60 min post injection): 10±0.8 %ID/g
uptake in liver (DU145 tumor xenograft; 60 min post injection): 5.5±1.0 %ID/g
uptake in lung (DU145 tumor xenograft; 60 min post injection): 2.0±0.4 %ID/g
uptake in muscle (DU145 tumor xenograft; 60 min post injection): 3.0±0.7 %ID/g
uptake in pancreas (DU145 tumor xenograft; 60 min post injection): 39±6.9 %ID/g
uptake in spleen (DU145 tumor xenograft; 60 min post injection): 11±2.9 %ID/g
uptake in tumor (DU145 tumor xenograft; 60 min post injection): 7.9±1.7 %ID/g
uptake in blood (DU145 tumor xenograft; 120 min post injection): 1.6±0.3 %ID/g
uptake in bone (DU145 tumor xenograft; 120 min post injection): 2.6±0.5 %ID/g
uptake in brain (DU145 tumor xenograft; 120 min post injection): 1.6±0.2 %ID/g
uptake in heart (DU145 tumor xenograft; 120 min post injection): 4.9±0.9 %ID/g
uptake in kidney (DU145 tumor xenograft; 120 min post injection): 7.9±0.7 %ID/g
uptake in liver (DU145 tumor xenograft; 120 min post injection): 3.6±0.6 %ID/g
uptake in lung (DU145 tumor xenograft; 120 min post injection): 2.1±0.8 %ID/g
uptake in muscle (DU145 tumor xenograft; 120 min post injection): 2.7±0.8 %ID/g
uptake in pancreas (DU145 tumor xenograft; 120 min post injection): 27±4.5 %ID/g
uptake in spleen (DU145 tumor xenograft; 120 min post injection): 6.0±0.9 %ID/g
uptake in tumor (DU145 tumor xenograft; 120 min post injection): 6.8±0.8 %ID/g
uptake in bone (SKOV3 tumor xenograft; 15 min post injection): 2.6±1.0 %ID/g
uptake in brain (SKOV3 tumor xenograft; 15 min post injection): 0.7±0.4 %ID/g
uptake in heart (SKOV3 tumor xenograft; 15 min post injection): 4.0±2.1 %ID/g
uptake in kidney (SKOV3 tumor xenograft; 15 min post injection): 17±4.5 %ID/g
uptake in liver (SKOV3 tumor xenograft; 15 min post injection): 4.6±2.5 %ID/g
uptake in lung (SKOV3 tumor xenograft; 15 min post injection): 3.9±1.3 %ID/g
uptake in muscle (SKOV3 tumor xenograft; 15 min post injection): 2.3±1.1 %ID/g
uptake in pancreas (SKOV3 tumor xenograft; 15 min post injection): 38±18 %ID/g
uptake in spleen (SKOV3 tumor xenograft; 15 min post injection): 8.7±3.4 %ID/g
uptake in tumor (SKOV3 tumor xenograft; 15 min post injection): 10±4.8 %ID/g
uptake in blood (SKOV3 tumor xenograft; 30 min post injection): 2.7±0.3 %ID/g
uptake in bone (SKOV3 tumor xenograft; 30 min post injection): 2.8±0.7 %ID/g
uptake in brain (SKOV3 tumor xenograft; 30 min post injection): 1.0±0.04 %ID/g
uptake in heart (SKOV3 tumor xenograft; 30 min post injection): 4.9±0.1 %ID/g
uptake in kidney (SKOV3 tumor xenograft; 30 min post injection): 14±2.6 %ID/g
uptake in liver (SKOV3 tumor xenograft; 30 min post injection): 5.0±0.7 %ID/g
uptake in lung (SKOV3 tumor xenograft; 30 min post injection): 3.1±0.3 %ID/g
uptake in muscle (SKOV3 tumor xenograft; 30 min post injection): 2.8±0.3 %ID/g
uptake in pancreas (SKOV3 tumor xenograft; 30 min post injection): 41±7.4 %ID/g
uptake in spleen (SKOV3 tumor xenograft; 30 min post injection): 13±3.6 %ID/g
uptake in tumor (SKOV3 tumor xenograft; 30 min post injection): 14±1.1 %ID/g
uptake in blood (SKOV3 tumor xenograft; 60 min post injection): 2.1±0.1 %ID/g
uptake in bone (SKOV3 tumor xenograft; 60 min post injection): 2.3±0.3 %ID/g
uptake in brain (SKOV3 tumor xenograft; 60 min post injection): 1.0±0.3 %ID/g
uptake in heart (SKOV3 tumor xenograft; 60 min post injection): 4.9±1.1 %ID/g
uptake in kidney (SKOV3 tumor xenograft; 60 min post injection): 10±0.8 %ID/g
uptake in liver (SKOV3 tumor xenograft; 60 min post injection): 4.5±0.3 %ID/g
uptake in lung (SKOV3 tumor xenograft; 60 min post injection): 2.5±0.3 %ID/g
uptake in muscle (SKOV3 tumor xenograft; 60 min post injection): 2.6±0.6 %ID/g
uptake in pancreas (SKOV3 tumor xenograft; 60 min post injection): 34±4.7 %ID/g
uptake in spleen (SKOV3 tumor xenograft; 60 min post injection): 6.8±1.0 %ID/g
uptake in tumor (SKOV3 tumor xenograft; 60 min post injection): 9.0±2.2 %ID/g
uptake in blood (SKOV3 tumor xenograft; 120 min post injection): 1.5±0.2 %ID/g
uptake in bone (SKOV3 tumor xenograft; 120 min post injection): 1.9±0.4 %ID/g
uptake in brain (SKOV3 tumor xenograft; 120 min post injection): 1.2±0.2 %ID/g
uptake in heart (SKOV3 tumor xenograft; 120 min post injection): 3.6±0.6 %ID/g
uptake in kidney (SKOV3 tumor xenograft; 120 min post injection): 7.0±0.8 %ID/g
uptake in liver (SKOV3 tumor xenograft; 120 min post injection): 2.7±0.5 %ID/g
uptake in lung (SKOV3 tumor xenograft; 120 min post injection): 1.8±0.3 %ID/g
uptake in muscle (SKOV3 tumor xenograft; 120 min post injection): 2.0±0.4 %ID/g
uptake in pancreas (SKOV3 tumor xenograft; 120 min post injection): 19±2.4 %ID/g
uptake in spleen (SKOV3 tumor xenograft; 120 min post injection): 4.5±1.1 %ID/g
uptake in tumor (SKOV3 tumor xenograft; 120 min post injection): 6.2±0.5 %ID/g
inhibition of uptake by BCH ([4]; 10 mM BCH, relative to control, most cell lines): 36-68%
inhibition of uptake by MeAIB ([4]; 10 mM MeAIB, relative to control, most cell lines): 10-32%
uptake in tumor cells ([4]; 30 minutes incubation, without inhibitors, range over the cell lines): 5-9 %ID/5×10^5 cells
amino acid transport system mediating uptake / selectivity ([4]; AAT cell inhibition assays with MeAIB and BCH): mixed AATs, likely but not limited to system A and system L
